From publication PMC10648349, “Aromatic Diboronic Acids as Effective KPC/AmpC Inhibitors” (Molecules, 2023)
Converted amounts (≈) assume the structure as drawn.

How the values were obtained:
B. subtilis ATCC 6633 = experiment: direct antimicrobial activity (disc-diffusion); assay type: cell-based; details: Bacillus subtilis, ATCC6633; 0.4 mg per disc, 9 mm disc (linezolid 0.03 mg, 6 mm disc); - no zone; read-out: Diameter of inhibition zone
Method in brief: (§1)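 Reference drugs were nitrofurantoin for Gram-negative rods, linezolid for Gram-positive bacteria and fluconazole for yeasts. Test agents were dissolved in DMSO and assessed by disc diffusion (0.4 mg/disc), MIC, and MBC or MFC per EUCAST/CLSI.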

[1] = system: S. aureus ATCC 43300 MRSA; experiment: direct antimicrobial activity (disc-diffusion, MIC, MBC); assay type: cell-based; details: Staphylococcus aureus; for zone of inhibition at 0.4 mg/disc: 0.4 mg per disc, 9 mm disc (linezolid 0.03 mg, 6 mm disc), - no zone, read-out: Diameter of inhibition zone
Method in brief: as §1

E. faecalis ATCC 29212 = experiment: as above; assay type: cell-based; details: Enterococcus faecalis, ATCC29212
Method in brief: as §1

S. aureus ATCC 6538P = experiment: as above; assay type: cell-based; details: Staphylococcus aureus, ATCC6538P; for zone of inhibition at 0.4 mg/disc: 0.4 mg per disc, 9 mm disc (linezolid 0.03 mg, 6 mm disc), - no zone, read-out: Diameter of inhibition zone
Method in brief: as §1

C. krusei ATCC 6258 = experiment: antifungal activity (disc-diffusion, MIC, MFC); assay type: cell-based, Candida krusei; details: Pichia kudriavzevii, ATCC6258; for MIC: fluconazole by Etest
Method in brief: as §1

[2] = system: C. guilliermondii IBA 155; experiment: antifungal activity (disc-diffusion, MIC, MFC); assay type: cell-based, Candida guilliermondii; details: Meyerozyma guilliermondii, IBA155; for zone of inhibition at 0.4 mg/disc: 0.4 mg per disc, 9 mm disc (fluconazole 0.025 mg, 6 mm disc), - no zone, read-out: Diameter of inhibition zone; for MIC: fluconazole by Etest
Method in brief: as §1

[3] = system: C. parapsilosis ATCC 22019; experiment: antifungal activity (disc-diffusion, MIC, MFC); assay type: cell-based, Candida parapsilosis; details: Lodderomyces parapsilosis, ATCC22019; for MIC: fluconazole by Etest
Method in brief: as §1

[4] = system: P. aeruginosa MUW 700 cAmpC-positive; experiment: combination disc test CDT-AmpC; assay type: cell-based; details: Pseudomonas aeruginosa, read-out: Diameter of inhibition zone, CAZ-30 disc with agent; for zone of inhibition at 100 µg/disc: agent 0.1 mg per disc
[5] = system: E. coli 77 CMY-2-positive; experiment: combination disc test CDT-AmpC; assay type: cell-based; details: Escherichia coli, read-out: Diameter of inhibition zone, CAZ-30 disc with agent; for zone of inhibition at 100 µg/disc: agent 0.1 mg per disc
[6] = system: K. pneumoniae ATCC 700603 ESBL-positive; experiment: combination disc test CDT-ESBL; assay type: cell-based; details: Klebsiella pneumoniae, ATCC700603, read-out: Diameter of inhibition zone, CAZ-30 disc with agent; for zone of inhibition at 100 µg/disc: agent 0.1 mg per disc; for zone of inhibition at 300 µg/disc: agent 0.3 mg per disc
[7] = MTT-based viability assay; assay type: cell-based; details: human, MRC-5 human fibroblasts, 72 h, read-out: Viability of MRC-5 cells (% of viable cells ± SD)
Method in brief: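 Percent viable cells relative to control, measured in triplicate by MTT read-out at 570 nm. Cells: MRC-5 human fibroblasts cultured at 37 °C, 5% CO2 in MEME plus 10% FBS.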

[8] = system: P. aeruginosa MUW 700 cAmpC-positive; experiment: checkerboard microdilution, antibiotic plus tested agent; assay type: cell-based, Pseudomonas aeruginosa
Method in brief: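 Chequerboard layout: tested agent in three two-fold steps (4–16 mg/L) crossed with seven β-lactam dilutions (1–64 mg/L), meropenem for KPC strains and ceftazidime for the cAmpC strain. FICI from first non-growth wells, off-scale MICs raised one doubling; ≤0.5 counts as synergy, >4 antagonism.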

[9] = system: K. pneumoniae 83 KPC-3(+), CTX-M-3(+); experiment: MIC of tested agent alone, microdilution; assay type: cell-based; details: Klebsiella pneumoniae; read-out: MIC of agent alone
Method in brief: (§2)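 Checkerboard microdilution; β-lactam 1–64 mg/L (7 two-fold steps) × agent/PBA 4–16 mg/L (3 two-fold steps). Agent-alone MIC by standard microdilution. FICI from first no-growth wells along growth interface.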

[10] = system: K. pneumoniae 81 KPC-3(+); experiment: MIC of tested agent alone, microdilution; assay type: cell-based; details: Klebsiella pneumoniae; read-out: MIC of agent alone
Method in brief: as §2

[11] = system: K. pneumoniae ATCC BAA-1705 KPC-2(+); experiment: MIC of tested agent alone, microdilution; assay type: cell-based; details: Klebsiella pneumoniae, ATCCBAA1705; read-out: MIC of agent alone
Method in brief: as §2

[12] = system: P. aeruginosa MUW 700 AmpC(+); experiment: MIC of tested agent alone, microdilution; assay type: cell-based; details: Pseudomonas aeruginosa; read-out: MIC of agent alone
Method in brief: as §2

E. coli 77 CMY-2(+) = experiment: MIC of tested agent alone, microdilution; assay type: cell-based; details: Escherichia coli; read-out: MIC of agent alone
Method in brief: as §2

E. coli 76 KPC-2(+) = experiment: MIC of tested agent alone, microdilution; assay type: cell-based; details: Escherichia coli; read-out: MIC of agent alone
Method in brief: as §2

[13] = 0.4 mg per disc, 9 mm disc (fluconazole 0.025 mg, 6 mm disc), - no zone, read-out: Diameter of inhibition zone

Row | MIC [1] | MIC (E. faecalis ATCC 29212) | MIC (S. aureus ATCC 6538P) | MIC (C. krusei ATCC 6258) | MIC [2] | MIC [3] | MIC [9] | MIC [10] | MIC [11] | MIC [12] | MIC (E. coli 77 CMY-2(+)) | Compound | zone of inhibition at 0.4 mg/disc (B. subtilis ATCC 6633) | zone of inhibition at 0.4 mg/disc (S. aureus ATCC 6538P) | viability at 72 h, 12.5 mg/L [7] | viability at 72 h, 25 mg/L [7] | viability at 72 h, 50 mg/L [7] | Average FICI with ceftazidime [8] | Interpretation of the average FICI with ceftazidime [8] | Interpretation of the lowest FICI with ceftazidime [8] | The lowest FICI with ceftazidime [8] | other results
1 | 200 µg/mL (≈ 910 µM) | 400 µg/mL (≈ 1820 µM) | 50 µg/mL (≈ 228 µM) | 100 µg/mL (≈ 455 µM) | 50 µg/mL (≈ 228 µM) | 100 µg/mL (≈ 455 µM) | 100 µg/mL | 100 µg/mL | 100 µg/mL | > 400 µg/mL | 100 µg/mL | OB(O)c1cc(F)c(B(O)O)c(F)c1F [1f] | 13 mm | 17 mm | 97.4 ± 2.2% | 89.9 ± 1.9% | 78.1 ± 0.9% | 0.43 | S (FICI ≤ 0.5, synergy) | S (FICI ≤ 0.5, synergy) | 0.27 | zone of inhibition at 0.4 mg/disc [1]: 16 mm; zone of inhibition at 0.4 mg/disc (C. krusei ATCC 6258; [13]): 19 mm; zone of inhibition at 0.4 mg/disc [2]: 29 mm; zone of inhibition at 0.4 mg/disc [3, 13]: 20 mm; zone of inhibition at 100 µg/disc [4]: 17 mm; zone of inhibition at 100 µg/disc [5]: 21 mm; zone of inhibition at 100 µg/disc [6]: 15 mm; MIC (E. coli 76 KPC-2(+)): 100 µg/mL
2 | 400 µg/mL (≈ 2180 µM) | 400 µg/mL (≈ 2180 µM) | 100 µg/mL (≈ 544 µM) | > 400 µg/mL | > 400 µg/mL | > 400 µg/mL | > 400 µg/mL | > 400 µg/mL | > 400 µg/mL | > 400 µg/mL | 400 µg/mL | OB(O)c1cc(F)cc(B(O)O)c1 [2b] | 17 mm | 14 mm | 108 ± 1.1% | 87.9 ± 1.7% | 73.8 ± 1.9% | 0.35 | S (FICI ≤ 0.5, synergy) | S (FICI ≤ 0.5, synergy) | 0.26 | zone of inhibition at 0.4 mg/disc [1]: 15 mm; zone of inhibition at 100 µg/disc [4]: 18 mm; zone of inhibition at 100 µg/disc [5]: 21 mm; zone of inhibition at 300 µg/disc [6]: 16 mm; MIC (E. coli 76 KPC-2(+)): 400 µg/mL
3 | 100 µg/mL (≈ 496 µM) | 200 µg/mL (≈ 991 µM) | 50 µg/mL (≈ 248 µM) | 400 µg/mL (≈ 1980 µM) | 400 µg/mL (≈ 1980 µM) | > 400 µg/mL | 400 µg/mL | 400 µg/mL | 400 µg/mL | > 400 µg/mL | 200 µg/mL | OB(O)c1cc(F)c(F)c(B(O)O)c1 [2d] | 15 mm | 22 mm | 107 ± 7.6% | 88 ± 4.3% | 75.2 ± 9.4% | 0.35 | S (FICI ≤ 0.5, synergy) | S (FICI ≤ 0.5, synergy) | 0.26 | zone of inhibition at 0.4 mg/disc [1]: 19 mm; zone of inhibition at 0.4 mg/disc (E. faecalis ATCC 29212; 0.4 mg per disc, 9 mm disc (linezolid 0.03 mg, 6 mm disc), - no zone, read-out: Diameter of inhibition zone): 14 mm; zone of inhibition at 100 µg/disc [4]: 18 mm; zone of inhibition at 100 µg/disc [5]: 21 mm; zone of inhibition at 100 µg/disc [6]: 13 mm; MIC (E. coli 76 KPC-2(+)): 200 µg/mL

Row | Compound | MIC [1] | MIC (E. faecalis ATCC 29212) | MIC (S. aureus ATCC 6538P) | MIC (C. krusei ATCC 6258) | MIC [2] | MIC [3] | MIC [9] | MIC [10] | MIC [11] | MIC [12] | MIC (E. coli 77 CMY-2(+)) | zone of inhibition at 0.4 mg/disc (B. subtilis ATCC 6633) | zone of inhibition at 0.4 mg/disc (S. aureus ATCC 6538P) | viability at 72 h, 12.5 mg/L [7] | viability at 72 h, 25 mg/L [7] | viability at 72 h, 50 mg/L [7] | Average FICI with ceftazidime [8] | Interpretation of the average FICI with ceftazidime [8] | Interpretation of the lowest FICI with ceftazidime [8] | The lowest FICI with ceftazidime [8] | other results
4 | OB(O)c1cccc(B(O)O)c1 [2a] | 400 µg/mL (≈ 2410 µM) | 200 µg/mL (≈ 1210 µM) | 100 µg/mL (≈ 603 µM) | > 400 µg/mL | > 400 µg/mL | > 400 µg/mL | > 400 µg/mL | > 400 µg/mL | > 400 µg/mL | > 400 µg/mL | > 400 µg/mL | 18 mm | 20 mm | 94.4 ± 2.2% | 75.2 ± 10.3% | 73.1 ± 13.6% | 0.18 | S (FICI ≤ 0.5, synergy) | S (FICI ≤ 0.5, synergy) | 0.14 | zone of inhibition at 0.4 mg/disc [2]: 14 mm; zone of inhibition at 300 µg/disc ([4]; agent 0.3 mg per disc): 21 mm; zone of inhibition at 300 µg/disc ([5]; agent 0.3 mg per disc): 22 mm; zone of inhibition at 300 µg/disc [6]: 16 mm; MIC (E. coli 76 KPC-2(+)): > 400 µg/mL
